Drawing on a melting point compilation (Tetko et al.; mined from patent text by program, amines drawn as free bases though some values may be those of a salt), this text covers melting point for 89 compounds.

As usually defined, the melting point is the temperature, or range, at which the solid turns liquid.

On to `O=C(O)CCOCCc1cccc(-c2nc(=O)c3ccccc3s2)n1`, for which the melting point was found to be 237 °C. The figure for `Nc1cc(NC(=O)c2ccc(F)c(F)c2)ccc1F` is 135 to 142 °C; for `CC(C)(O)C#Cc1ccc(C#N)cc1Cl` it is 63 to 65 °C. `Cc1cc(C)nc(Sc2ccnc3cc(Cl)ccc23)n1` displayed a melting point of 127 to 130 °C. Under `O=S(=O)(Nc1ccc(Cl)cc1C1=NN(c2ccccc2)CC1)C(F)(F)F` stands 138 to 163 °C. The figure for `CCOC(=O)c1cn(C(C)(C)C)c2nc(F)c(Cl)cc2c1=O` is 155 °C; for `COc1nnccc1-c1ccccc1OCC(O)CNC(C)(C)C` (centres undefined) it is 110 °C; for `O=C1CSC(C(=O)O)Cc2cc3c(cc21)OCCO3` (centres undefined) it is 208 to 209 °C. The figure for `CC(C)(C)c1ccc(-c2csc(-c3cccc(C(=O)O)c3)n2)cc1` is 250 to 251 °C.

Regarding `CC(C)n1nc(CC(=O)c2cccc(Cl)c2)ccc1=O`, the melting point fell in the range of 85 to 86 °C. Under `NC(CCC(=O)O)c1cccs1` (centres undefined) stands 148 to 156 °C; under `CN(C)C(=O)Oc1cccc2c1CC[C@H]1[C@H]2CCN1CCC1CCCCC1`, 110 to 112 °C. The figure for `CC(=O)NCC1CC1c1c(Cl)ccc2nn(C)cc12` (centres undefined) is 149 to 150 °C; for `C=Cc1cn(-c2c(Cl)cc(C(F)(F)F)cc2Cl)nc1C#N` it is 75 to 76 °C; for `CC(C)(C)C(=O)Nc1cccc(N)n1` it is 140 to 141 °C.

As to `CCOC(=O)c1[nH]c(CC)c(CC)c1C`, the melting point lay within 71 to 73 °C.

On to `CN1CN(C(=O)c2c(F)cccc2F)C(=O)N(c2ccc(SC(F)F)cc2F)C1`, for which the melting point was 135 to 137 °C. `Cc1cc(Cc2nnc(Nc3ccc(Cl)cc3)c3ccccc23)cc(C)n1` returned a melting point of 175 to 176 °C. `CC(=NO)C(C)(C)NCC(CNC(C)(C)C(C)=NO)CC(O)Cn1ccnc1[N+](=O)[O-]` (centres undefined) registered a melting point of 185 to 187 °C. The figure for `COc1cc(OCc2cccc([N+](=O)[O-])c2)ccc1C(C)=O` is 111 to 114 °C; for `O=C1c2ccccc2C(=O)N1CCCc1cn(C(c2ccccc2)(c2ccccc2)c2ccccc2)cn1` it is 211 to 214 °C. `O=C1CCc2c(ccc3cc(O)ccc23)O1` showed a melting point of 189 to 199 °C.

In the case of `NNC(=O)c1ncn2c1[C@@H]1CCCN1C(=O)c1sccc1-2`, the melting point is > 260 °C. Under `Cc1ccc2c(NCc3ccc(NC(=O)C4CCN(Cc5ccccc5)CC4)cc3)nc(N3CCCC3)nc2c1` stands 96 °C. The figure for `C=CCSc1nnc(Cl)c(C)c1C` is 51 to 53 °C.

`COc1cc2ncnc(N3CCN(C(=O)NCCc4ccc(Br)cc4)CC3)c2cc1OC` displayed a melting point of 174 to 175 °C. As for `CCOC(=O)COc1cc(C(=O)Oc2ccc([N+](=O)[O-])cc2)c(O)c2ccccc12`, the melting point fell in the range of 165 to 167 °C.

`COCc1ccc(Cc2cccc(-c3c(O)c4ccc(Cl)cc4[nH]c3=O)c2)cc1` yielded a melting point of 276 to 278 °C.

For `CCCCc1nc(C(O)C(C)C)c(C#N)n1Cc1ccc(-c2ccccc2-c2nnnn2C(c2ccccc2)(c2ccccc2)c2ccccc2)cc1` (centres undefined), the melting point is 127 to 128 °C. The figure for `CNCC1CCN(c2c(F)cc3c(=O)c(C(=O)O)cn4c3c2OCC4C)C1` (centres undefined) is 235 to 238 °C; for `COc1ccc(C(=C(c2ccc(C#N)cc2)n2ccnc2)c2ccc(OC)cc2)cc1` it is 174 to 176 °C; for `CC(=O)NC(CF)COC1CCN(c2nc3ccc(OCC4CC4)cc3o2)CC1` (centres undefined) it is 120 to 121 °C. `O=C1OCCCCOC(=O)c2ccc(cc2)-c2ccc1cc2` showed a melting point of 266 °C.

As to `Cc1ccc(NC(=O)c2ccc(C#N)cc2)cc1NC(=O)c1ccc(O)cc1`, the melting point fell in the range of 297 to 299 °C. Under `Cc1oc(-c2ccc3ccccc3c2)nc1C=Cc1ccc(/C=C/C=O)cc1` stands 213 to 214 °C; under `O=C(c1ccc(NS(=O)(=O)c2ccccc2Cl)cc1)N1Cc2cccn2Cc2ccccc21`, 206 to 210 °C. As to `Nc1c(-c2cc(Cl)ccc2O)c2c(C(F)(F)F)c(Cl)ccc2[nH]c1=O`, the melting point lay in the range of 139 to 140 °C. The figure for `CCCCCCCCCc1cc(C=CC(=O)N2CCN(c3ccc(NC(=N)c4cccs4)cc3)CC2)cc(CCCCCCCCC)c1O` is 103 to 105 °C; for `CC(=O)N1CCC2(CC1)CC(=O)c1c(O)cccc1O2` it is 114 to 116 °C; for `CN1CC(CCN2CCN(c3cc(Cl)cc(Cl)c3)CC2)OC1=O` (centres undefined) it is 89 to 90 °C.

`COc1ccc(C(C#N)=Cc2ccc(OC)c(OC3CCCC3)c2)cc1` returned a melting point of 102 to 105 °C.

Turning to `CCOC(=O)c1c(N2CCCC2)c2cccnc2n(C)c1=O`, the melting point lay within 118 to 120 °C. Under `CCCn1cnc2c1c(=O)n(CCCCCCOc1ccc(Cl)cc1)c(=O)n2C` stands 50 to 51 °C; under `CN1CCC2=C(C=CCC2)C(N)C1=O` (centres undefined), 69 to 81 °C; under `CS(=O)(=O)c1ccc(Nc2nccc(N3CCCc4c(O)cccc43)n2)cc1`, 242 to 245 °C. For the compound `COC(=O)c1cc(C(=O)NC2CCOCC2)c2cc(Cc3ccc(F)cc3)cnc2c1O`, the melting point was 246 to 247 °C. Under `CCCCSc1ccc(/C=C\C(C)=O)cc1[N+](=O)[O-]` stands 100 °C; under `O=C(Nc1ccc(Oc2cc(Cl)ncn2)cc1)Nc1ccc(Cl)c(C(F)(F)F)c1`, 180 to 181 °C; under `COc1ccc(C2CC(n3ccnc3)c3ccccc3N2)cc1` (centres undefined), 156 to 158 °C. Under `CC(C)N(c1nc(N)nc(-c2cc(Cl)ccc2Cl)n1)C(C)C` stands 158 to 159 °C. Under `CCc1cccc(CNC[C@@H](O)[C@H](Cc2cc(F)cc(F)c2)NC(=O)C2CCC(CS(C)(=O)=O)CC2)c1` (some centres undefined) stands 45 to 50 °C. With `COc1nc(C)c(C)nc1N(C)C(=O)N1CCN(c2cc([N+](=O)[O-])cc([N+](=O)[O-])c2)CC1`, the melting point is 133 to 135 °C. Under `COc1nc(C)cnc1NS(=O)(=O)c1cccnc1-c1ccc(OC(C)(C)CO)cc1` stands 182 to 184 °C; under `COC1(C)C(=O)C(c2ccccc2)=C1c1ccc(S(C)(=O)=O)cc1` (centres undefined), 145 °C. Under `Cc1cc(C(=O)c2ccc(Cl)cc2)ccc1[N+](=O)[O-]` stands 105 to 108 °C; under `O=C(O)CCC(Cc1ccc(Cl)cc1)(C(=O)C=Cc1ccc(Cl)cc1)c1ccccc1` (centres undefined), 176 to 178 °C.

As to `CC(=O)NC[C@H]1CN(c2ccc(N3CCC(=C(C)C#N)CC3)cc2)C(=O)O1`, the melting point was in the range of 94 to 96 °C. As to `CN(C)C(=O)C1(CCCN2CCCCC2)CC=CCC1c1ccccc1` (centres undefined), the melting point lay within 105 to 106 °C. Under `Cc1ccccc1C=CC(=O)c1c(C)n(CCN2CCOCC2)c2ccccc12` stands 131 to 135 °C; under `NS(=O)(=O)c1cc2c(s1)SCC(=O)N2`, 243 to 245 °C.

Consider `C#CCn1c(=O)n(C(C)C)c2ccc(-c3ncc(C(F)(F)F)cc3Cl)cc21`, for which the melting point lay in the range of 109 to 111 °C. With `C=CC12CCc3cc(O)ccc3C1=CCC1(C)C(O)CCC21` (centres undefined), the melting point was in the range of 149 to 150 °C. The figure for `CN(C)Cc1cnc2n1-c1ccc(Br)cc1C(c1ccccn1)=NC2` is 200 to 202 °C; for `OC(c1cn(C(c2ccccc2)(c2ccccc2)c2ccccc2)cn1)c1cc(Cl)cc2c1OCOC2` (centres undefined) it is 233 to 235 °C; for `O=C(Nc1cccc2c1C1CCCCN1C2=O)Nc1ncccc1Br` (centres undefined) it is 220 °C. The figure for `COc1ccc(C(=O)C(O)c2ccccc2)cc1` (centres undefined) is 99 to 101 °C; for `COC(=O)c1c(Cl)cc(Cl)cc1NC(=O)CSc1ccc(NS(=O)(=O)c2ccc(Cl)cc2)cc1` it is 120 to 123 °C. The figure for `O=C(c1ccc(F)cc1)C1(c2ccccc2)CCN(Cc2ccccc2)CC1` is 148 °C. As to `Cc1ncc2cc(-c3ccccc3Cl)c(N)nc2n1`, the melting point was 259 to 260 °C.

`CS(=O)(=O)c1ccc(-c2cnn(-c3ccc(Cl)s3)c(=O)c2-c2ccc(F)cc2)cc1` registered a melting point of 190 to 192 °C. With `CC(O)Cn1cnc2c(N)nc3ccccc3c21` (centres undefined), the melting point lay within 216 to 221 °C. The figure for `Oc1ncncc1Oc1ccccc1` is 186 to 188 °C; for `Cn1nnc2ccc(CNNc3ccc(Cl)cc3)cc21` it is 96 °C. Take `CCCC1=C(C(=O)OCC)C(C)(c2ccccc2)c2c[nH]nc2N1` (centres undefined): the melting point was found to be 207 °C. Under `CCOCCc1ccc(OCCNc2nc(C)nc(C)c2Cl)c(C)c1` stands 61 to 63 °C; under `C[C@](O)(COc1ccc(C#N)cc1)C(=O)Nc1ccc(C#N)c(Cl)c1`, 103 to 105 °C. Under `C=CCOC(=O)Nc1nsc(N)n1` stands 159 to 161 °C; under `Cc1ccc(-c2nc(CO[C@H]3CCC[C@@H](C(=O)N[C@H](C(=O)O)C(C)C)C3)c(C)o2)cc1`, 195 to 196 °C; under `COc1ccc(S(=O)(=O)n2c(=O)n(-c3ccccc3)c3cc(Cl)ccc32)cc1OC`, 154 °C. The figure for `NC(=O)N(c1ccc(F)cc1)c1ccc(F)cc1` is 150 to 153 °C. Take `Nc1c(Cl)cc(C(=O)NCCC23CCCN2CCC3)c2c1CCO2`: the melting point came to 124 °C. Under `O=C1Nc2ccccc2C12COc1ccc3c(c12)N(Cc1cccnc1)ON3` (centres undefined) stands 230 to 232 °C.

Consider `O=Cc1cc([N+](=O)[O-])cc(O)c1O`, for which the melting point lay within 226 to 228 °C. The figure for `Nc1ncc(-c2cccc(Cl)c2Cl)c(Cl)n1` is 228 to 230 °C.

Take `COc1cc2[nH]c(=O)n(S(=O)(=O)c3ccc(Cl)cc3)c(=O)c2cc1OC`: the melting point was > 250 °C. Under `COC(=O)c1ccc(NC(=O)N(C)C)cc1` stands 169 to 170 °C. The figure for `CCCCCCCCCCCCCCCCCCCCOC(=O)P(=O)(O)O` is 87 to 89 °C.

In the case of `O=C(O)c1ccc(OCCCCCCCCCCO)cc1`, the melting point lay within 115 to 117 °C. Under `COCCOc1ccc(CC(C)CO)c(Oc2ncc(C(F)(F)F)cc2Cl)c1` (centres undefined) stands 84 to 86 °C.
